# Measurements published in PubChem BioAssay (NCI).
#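 Protocol summary: plate cells (96-well), add compound at 5 concentrations, incubate 48 h, interpolate endpoints linearly. The concentration for 50% growth inhibition is given as GI50. At the TGI there is no net growth.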
# Experiments:
# Assay in all cases: growth of human tumour cells (NCI), 48 h
# 786-0 renal = system: 786-0 renal
# A498 renal = system: A498 renal
# A549 NSCLC = system: A549 NSCLC
# ACHN renal = system: ACHN renal
# BT-549 breast = system: BT-549 breast
# CAKI-1 renal = system: CAKI-1 renal
# CCRF-CEM leukemia = system: CCRF-CEM leukemia
# COLO 205 colon = system: COLO 205 colon
# DU-145 prostate = system: DU-145 prostate
# EKVX NSCLC = system: EKVX NSCLC
# HCC-2998 colon = system: HCC-2998 colon
# HCT-116 colon = system: HCT-116 colon
# HCT-15 colon = system: HCT-15 colon
# HL-60(TB) leukemia = system: HL-60(TB) leukemia
# HOP-62 NSCLC = system: HOP-62 NSCLC
# HOP-92 NSCLC = system: HOP-92 NSCLC
# HS 578T breast = system: HS 578T breast
# HT29 colon = system: HT29 colon
# IGROV1 ovarian = system: IGROV1 ovarian
# K-562 leukemia = system: K-562 leukemia
# KM12 colon = system: KM12 colon
# LOX IMVI melanoma = system: LOX IMVI melanoma
# M14 melanoma = system: M14 melanoma
# MALME-3M melanoma = system: MALME-3M melanoma
# MCF7 breast = system: MCF7 breast
# MDA-MB-231 breast = system: MDA-MB-231 breast
# MDA-MB-435 = system: MDA-MB-435
# MOLT-4 leukemia = system: MOLT-4 leukemia
# NCI-H226 lung = system: NCI-H226 lung
# NCI-H23 lung = system: NCI-H23 lung
# NCI-H460 lung = system: NCI-H460 lung
# NCI-H522 lung = system: NCI-H522 lung
# NCI/ADR-RES ovarian = system: NCI/ADR-RES ovarian
# OVCAR-3 ovarian = system: OVCAR-3 ovarian
# OVCAR-4 ovarian = system: OVCAR-4 ovarian
# OVCAR-5 ovarian = system: OVCAR-5 ovarian
# OVCAR-8 ovarian = system: OVCAR-8 ovarian
# PC-3 prostate = system: PC-3 prostate
# RPMI-8226 leukemia = system: RPMI-8226 leukemia
# RXF 393 renal = system: RXF 393 renal
# SF-268 CNS = system: SF-268 CNS
# SF-295 CNS = system: SF-295 CNS
# SF-539 CNS = system: SF-539 CNS
# SK-MEL-2 melanoma = system: SK-MEL-2 melanoma
# SK-MEL-28 melanoma = system: SK-MEL-28 melanoma
# SK-MEL-5 melanoma = system: SK-MEL-5 melanoma
# SK-OV-3 ovarian = system: SK-OV-3 ovarian
# SN12C renal = system: SN12C renal
# SNB-19 CNS = system: SNB-19 CNS
# SNB-75 CNS = system: SNB-75 CNS
# SR leukemia = system: SR leukemia
# SW-620 colon = system: SW-620 colon
# T-47D breast = system: T-47D breast
# TK-10 renal = system: TK-10 renal
# U251 CNS = system: U251 CNS
# UACC-257 melanoma = system: UACC-257 melanoma
# UACC-62 melanoma = system: UACC-62 melanoma
# UO-31 renal = system: UO-31 renal
smiles,measurement,setting,value
CC1=C(CNO)C2=C(C)C3(CC3)[C@@](C)(O)C(=O)C2=C1,GI50,786-0 renal,2.53 µM
same,TGI,786-0 renal,6.88 µM
same,GI50,A498 renal,1.6 µM
same,TGI,A498 renal,3.28 µM
same,GI50,A549 NSCLC,1.17 µM
same,TGI,A549 NSCLC,17.6 µM
same,GI50,ACHN renal,2.25 µM
same,TGI,ACHN renal,7.6 µM
same,GI50,BT-549 breast,1.24 µM
same,TGI,BT-549 breast,3.6 µM
same,GI50,CAKI-1 renal,1.66 µM
same,TGI,CAKI-1 renal,7.07 µM
same,GI50,CCRF-CEM leukemia,6.6 µM
same,TGI,CCRF-CEM leukemia,60.6 µM
same,GI50,COLO 205 colon,1.09 µM
same,TGI,COLO 205 colon,3.83 µM
same,GI50,DU-145 prostate,0.375 µM
same,TGI,DU-145 prostate,5.5 µM
same,GI50,EKVX NSCLC,2.22 µM
same,TGI,EKVX NSCLC,5.98 µM
same,GI50,HCC-2998 colon,1.5 µM
same,TGI,HCC-2998 colon,3.76 µM
same,GI50,HCT-116 colon,1.85 µM
same,TGI,HCT-116 colon,5.21 µM
same,GI50,HCT-15 colon,1.71 µM
same,TGI,HCT-15 colon,4.99 µM
same,GI50,HL-60(TB) leukemia,2.77 µM
same,TGI,HL-60(TB) leukemia,30.7 µM
same,GI50,HOP-62 NSCLC,0.61 µM
same,TGI,HOP-62 NSCLC,4.57 µM
same,GI50,HOP-92 NSCLC,1.12 µM
same,TGI,HOP-92 NSCLC,4.62 µM
same,GI50,HS 578T breast,2.7 µM
same,TGI,HS 578T breast,9.18 µM
same,GI50,HT29 colon,2.34 µM
same,TGI,HT29 colon,58.8 µM
same,GI50,IGROV1 ovarian,0.898 µM
same,TGI,IGROV1 ovarian,7 µM
same,GI50,K-562 leukemia,11.9 µM
same,TGI,K-562 leukemia,> 100 µM
same,GI50,KM12 colon,3.72 µM
same,TGI,KM12 colon,27.4 µM
same,GI50,LOX IMVI melanoma,3.44 µM
same,TGI,LOX IMVI melanoma,19 µM
same,GI50,M14 melanoma,1.92 µM
same,TGI,M14 melanoma,5.04 µM
same,GI50,MALME-3M melanoma,1.81 µM
same,TGI,MALME-3M melanoma,3.71 µM
same,GI50,MCF7 breast,0.763 µM
same,TGI,MCF7 breast,6.73 µM
same,GI50,MDA-MB-231 breast,2.03 µM
same,TGI,MDA-MB-231 breast,7.14 µM
same,GI50,MDA-MB-435,11.4 µM
same,TGI,MDA-MB-435,39 µM
same,GI50,MOLT-4 leukemia,3.72 µM
same,TGI,MOLT-4 leukemia,> 100 µM
same,GI50,NCI-H226 lung,1.83 µM
same,TGI,NCI-H226 lung,4.79 µM
same,GI50,NCI-H23 lung,0.473 µM
same,TGI,NCI-H23 lung,2.72 µM
same,GI50,NCI-H460 lung,0.358 µM
same,TGI,NCI-H460 lung,3.87 µM
same,GI50,NCI-H522 lung,0.679 µM
same,TGI,NCI-H522 lung,5.25 µM
same,GI50,NCI/ADR-RES ovarian,2.32 µM
same,TGI,NCI/ADR-RES ovarian,7.63 µM
same,GI50,OVCAR-3 ovarian,1.49 µM
same,TGI,OVCAR-3 ovarian,6.26 µM
same,GI50,OVCAR-4 ovarian,2.1 µM
same,TGI,OVCAR-4 ovarian,7.06 µM
same,GI50,OVCAR-5 ovarian,1.4 µM
same,TGI,OVCAR-5 ovarian,17.4 µM
same,GI50,OVCAR-8 ovarian,2.28 µM
same,TGI,OVCAR-8 ovarian,36 µM
same,GI50,PC-3 prostate,1.91 µM
same,TGI,PC-3 prostate,19.6 µM
same,GI50,RPMI-8226 leukemia,21.1 µM
same,TGI,RPMI-8226 leukemia,72.9 µM
same,GI50,RXF 393 renal,0.726 µM
same,TGI,RXF 393 renal,2.41 µM
same,GI50,SF-268 CNS,0.766 µM
same,TGI,SF-268 CNS,9.89 µM
same,GI50,SF-295 CNS,0.982 µM
same,TGI,SF-295 CNS,4.42 µM
same,GI50,SF-539 CNS,1.64 µM
same,TGI,SF-539 CNS,5.03 µM
same,GI50,SK-MEL-2 melanoma,1.98 µM
same,TGI,SK-MEL-2 melanoma,4.91 µM
same,GI50,SK-MEL-28 melanoma,2.37 µM
same,TGI,SK-MEL-28 melanoma,6.05 µM
same,GI50,SK-MEL-5 melanoma,1.68 µM
same,TGI,SK-MEL-5 melanoma,3.22 µM
same,GI50,SK-OV-3 ovarian,1.13 µM
same,TGI,SK-OV-3 ovarian,5.22 µM
same,GI50,SN12C renal,2.77 µM
same,TGI,SN12C renal,> 100 µM
same,GI50,SNB-19 CNS,1.81 µM
same,TGI,SNB-19 CNS,25.5 µM
same,GI50,SNB-75 CNS,1.38 µM
same,TGI,SNB-75 CNS,2.86 µM
same,GI50,SR leukemia,4.49 µM
same,TGI,SR leukemia,> 100 µM
same,GI50,SW-620 colon,4.54 µM
same,TGI,SW-620 colon,> 100 µM
same,GI50,T-47D breast,1.21 µM
same,TGI,T-47D breast,8.47 µM
same,GI50,TK-10 renal,3.24 µM
same,TGI,TK-10 renal,8.4 µM
same,GI50,U251 CNS,2.39 µM
same,TGI,U251 CNS,> 100 µM
same,GI50,UACC-257 melanoma,2.78 µM
same,TGI,UACC-257 melanoma,7.64 µM
same,GI50,UACC-62 melanoma,1.8 µM
same,TGI,UACC-62 melanoma,3.73 µM
same,GI50,UO-31 renal,1.83 µM
same,TGI,UO-31 renal,5.87 µM
